Paper PMC11822212, “High-throughput screening identifies Aurora kinase B as a critical therapeutic target for Merkel cell carcinoma” (Nature Communications, 2025)

How the values were obtained:
MCC13 cells (VN-MCC) = assay: qHTS cell viability (CellTiter-Glo, 72 h; primary and follow-up small molecule screen); format: cell-based, human
MCC26 cells (VN-MCC) = assay: as above; format: cell-based, human
UISO cells (VN-MCC) = assay: as above; format: cell-based, human
WAGA cells (VP-MCC) = assay: as above; format: cell-based, human
MKL-1 cells (VP-MCC) = assay: as above; format: cell-based, human
MKL-2 cells (VP-MCC) = assay: as above; format: cell-based, human
HACAT cells = assay: qHTS cell viability (CellTiter-Glo, 72 h; primary screen), control cell line; format: cell-based, human
HEK293T cells = assay: as above; format: cell-based, human
NIH-3T3 cells = assay: as above; format: cell-based, mouse
CRL-7250 cells = assay: as above; format: cell-based
[1] = test system: MCC cell lines (WAGA, MKL-1, MKL-2, MCC13, MCC26, UISO); assay: qHTS cell viability, all six MCC cell lines as a group (mean AUC, MCC.avg); format: cell-based, human; settings: mean AUC of six MCC cell lines
[2] = test system: VP-MCC cell lines (WAGA, MKL-1, MKL-2); assay: qHTS cell viability, VP-MCC cell lines as a group (mean AUC, VP.MCC.avg); format: cell-based, human; settings: for VP-MCC_Avg_AUC: mean AUC of VP-MCC cell lines
[3] = test system: VN-MCC cell lines (MCC13, MCC26, UISO); assay: qHTS cell viability, VN-MCC cell lines as a group (mean AUC, VN.MCC.avg); format: cell-based, human; settings: for VN-MCC_Avg_AUC: mean AUC of VN-MCC cell lines
[4] = test system: control cell lines (HACAT, HEK293T, CRL-7250, NIH-3T3); assay: qHTS cell viability, control cell lines as a group (mean AUC, Control.avg); format: cell-based; settings: mean AUC of control cell lines
[5] = test system: six MCC cell lines and four control cell lines; assay: qHTS cell viability, all 10 cell lines screened; format: cell-based
[6] = MIPE library, 11-point DRC, sheet S2E
[7] = MIPE library, 11-point DRC, control cell line, sheet S2E

CCOc1ccc2nc(S(N)(=O)=O)sc2c1 [Ethoxzolamide]
MCC13_AUC (MCC13 cells (VN-MCC); NPC library, qHTS dose-response AUC, MCC13): 463.773
MCC26_AUC (MCC26 cells (VN-MCC); NPC library, qHTS dose-response AUC, MCC26): 444.564
UISO_AUC (UISO cells (VN-MCC); NPC library, qHTS dose-response AUC, UISO): 429.085
WAGA_AUC (WAGA cells (VP-MCC); NPC library, qHTS dose-response AUC, WAGA): 399.58
MKL1_AUC (MKL-1 cells (VP-MCC); NPC library, qHTS dose-response AUC, MKL1): 398.827
MKL2_AUC (MKL-2 cells (VP-MCC); NPC library, qHTS dose-response AUC, MKL2): 435.522
HACAT_AUC (HACAT cells; NPC library, qHTS dose-response AUC, HACAT control): 484.155
HEK293T_AUC (HEK293T cells; NPC library, qHTS dose-response AUC, HEK293T control): 465.047
NIH3T3_AUC (NIH-3T3 cells; NPC library, qHTS dose-response AUC, NIH3T3 control): 462.958
CRL7250_AUC (CRL-7250 cells; NPC library, qHTS dose-response AUC, CRL7250 control): 486.514
MCC_Avg_AUC ([1]; NPC library): 428.559
VP-MCC_Avg_AUC ([2]; NPC library): 411.31
Control-VP-MCC ([2]; NPC library, therapeutic window: Control avg AUC minus VP-MCC avg AUC): 63.3587
VN-MCC_Avg_AUC ([3]; NPC library): 445.807
Control-VN-MCC ([3]; NPC library, therapeutic window: Control avg AUC minus VN-MCC avg AUC): 28.8613
Control_Avg_AUC ([4]; NPC library): 474.669
Control-MCC ([5]; NPC library, therapeutic window: Control avg AUC minus MCC avg AUC): 46.11

CC(=O)SCC(Cc1ccccc1)C(=O)NCC(=O)OCc1ccccc1 (centres unmarked) [Racecadotril]
MCC13_AUC (MCC13 cells (VN-MCC); [6]): 461.58
MCC13_AUC (MCC13 cells (VN-MCC); area under the dose-response curve, MCC13 cells, AUC<450 = reduced viability): 485.077
MCC26_AUC (MCC26 cells (VN-MCC); [6]): 488.688
MCC26_AUC (MCC26 cells (VN-MCC); area under the dose-response curve, MCC26 cells, AUC<450 = reduced viability): 492.456
UISO_AUC (UISO cells (VN-MCC); [6]): 428.805
UISO_AUC (UISO cells (VN-MCC); area under the dose-response curve, UISO cells, AUC<450 = reduced viability): 451.995
WAGA_AUC (WAGA cells (VP-MCC); [6]): 280.978
WAGA_AUC (WAGA cells (VP-MCC); area under the dose-response curve, WAGA cells, AUC<450 = reduced viability): 389.872
MKL1_AUC (MKL-1 cells (VP-MCC); [6]): 303.479
MKL1_AUC (MKL-1 cells (VP-MCC); area under the dose-response curve, MKL-1 cells, AUC<450 = reduced viability): 393.26
MKL2_AUC (MKL-2 cells (VP-MCC); [6]): 282.974
MKL2_AUC (MKL-2 cells (VP-MCC); area under the dose-response curve, MKL-2 cells, AUC<450 = reduced viability): 385.069
HACAT_AUC (HACAT cells; [7]): 479.748
HACAT_AUC (HACAT cells; area under the dose-response curve, HACAT control cells, AUC<450 = reduced viability): 454.884
HEK293T_AUC (HEK293T cells; [7]): 456.066
HEK293T_AUC (HEK293T cells; area under the dose-response curve, HEK293T control cells, AUC<450 = reduced viability): 472.387
NIH3T3_AUC (NIH-3T3 cells; [7]): 475.653
NIH3T3_AUC (NIH-3T3 cells; area under the dose-response curve, NIH3T3 control cells, AUC<450 = reduced viability): 480.677
CRL7250_AUC (CRL-7250 cells; [7]): 474.01
CRL7250_AUC (CRL-7250 cells; area under the dose-response curve, CRL7250 control cells, AUC<450 = reduced viability): 474.054
MCC_Avg_AUC ([1]; MIPE library, sheet S2E): 374.417
Control-VP-MCC ([2]; MIPE library, Control AUC minus VP-MCC AUC (therapeutic window), sheet S2E): 182.226
VP-MCC_Avg_AUC ([2]; MIPE library, sheet S2E): 289.144
Control-VN-MCC ([3]; MIPE library, Control AUC minus VN-MCC AUC (therapeutic window), sheet S2E): 11.6784
VN-MCC_Avg_AUC ([3]; MIPE library, sheet S2E): 459.691
Control_Avg_AUC ([4]; MIPE library, sheet S2E): 471.369
Control-MCC ([5]; MIPE library, Control AUC minus MCC AUC (therapeutic window), sheet S2E): 96.952
